One data set in a line: in vitro. The following applies: human, Caco-2, pH 7.4. A digest of the protocol: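 Bidirectional permeability across Caco-2 monolayers in HBSS (pH 7.4) at a test concentration of 10 μM, incubated 0 and 90 min at 37° C (n=2). Monolayer integrity was assessed by TEER and Lucifer yellow. Papp was derived from LC-MS/MS-measured concentrations.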
Data set [1] addresses T1, CXCR-4 transfected U87 cell line (U87.CXCR4) (Homo sapiens, UniProt P61073).
T1 construct: expressed in transfected cells; host or cells: U87 (U87.CXCR4)
The experiment in a line: Intracellular CXCL-12-induced calcium mobilization assay (FLIPR). The format is cell-based. The following applies: U87.CXCR4 cells; CXCL-12 25-50 ng/mL; compound added 15 min before; read-out: IC50 CXCL-12 Ca^2+ flux U87.CXCR4+. Put shortly:
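CXCL-12 (25-50 ng/mL) was the stimulus, and the intracellular calcium rise was tracked kinetically by FLIPR at 37 °C. Cells were U87.CXCR4 transfectants pre-loaded 45 min at 37 °C with 4 μM (final) Fluo-2 AM in HEPES-buffered HBSS with 0.2% BSA, pH 7.4.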
(In general: A change in cytosolic calcium serves as a functional read-out for many receptors and channels.)

Data set [2] concerns the target T2, Jurkat cells expressing CXCR4 (Homo sapiens, UniProt P61073).
T2 construct: endogenous in cells; host or cells: Jurkat
The experiment in a line: Chemokine (CXCL12-AF647) binding inhibition assay. Particulars: CXCL12-AF647 25 ng/mL, read-out: IC50 CXCL-12 binding Jurkat. A digest of the protocol:
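Cells in HBSS, 20 mM HEPES, 0.2% BSA, pH 7.4, preincubated 15 min at room temperature with compound, then 25 ng/mL CXCL12-AF647 for 30 min. After washing and paraformaldehyde fixation, bound ligand read by flow cytometry; percent inhibition calculated from MFI relative to unlabeled and ligand-only controls.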

The structures appear in SMILES notation.

T1 sequence (P61073 whole entry): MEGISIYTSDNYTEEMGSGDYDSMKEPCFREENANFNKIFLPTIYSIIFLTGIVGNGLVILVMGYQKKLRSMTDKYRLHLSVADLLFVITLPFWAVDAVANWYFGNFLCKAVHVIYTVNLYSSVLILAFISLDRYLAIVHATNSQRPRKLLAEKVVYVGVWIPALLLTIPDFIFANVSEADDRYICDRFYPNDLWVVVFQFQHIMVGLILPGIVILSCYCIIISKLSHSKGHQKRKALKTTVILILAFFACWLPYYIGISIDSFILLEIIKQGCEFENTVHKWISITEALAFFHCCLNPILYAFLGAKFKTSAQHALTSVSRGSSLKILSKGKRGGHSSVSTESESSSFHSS
T2 sequence (P61073 whole entry): as above

Broadly, the Papp A→B is the apparent permeability from the apical to the basolateral side of a cell layer. Lower therefore signals slow passage. As a reminder, the Papp B→A is the apparent permeability from the basolateral to the apical side of a cell layer. A word on the efflux ratio: it is the permeability from basolateral to apical divided by that in the opposite direction, in the common usage. A word on the IC50: it is the concentration that inhibits the measured activity by half. As for `CC(C)c1cccnc1[C@@H]1CCC[C@H](c2nc3cccc(N4CCN(C)CC4)c3[nH]2)N1C` [I-49], in the data set “in vitro”, the Papp A→B at 90 min, 10 μM lay within 10 to 30 ×10⁻⁶ cm/s; the Papp B→A at 90 min, 10 μM lay in the range of 0.1 to 10 ×10⁻⁶ cm/s; the efflux ratio at 90 min, 10 μM was 0.1 to 10. Also, the IC50 in data set [1] lay within 100 to 1000 nM. Further, the IC50 in data set [2] was in the range of 0.01 to 100 nM.
On the same counts, the results for `CN1CCN(c2cccc3nc([C@H]4CCC[C@@H](c5ncccc5C(F)(F)F)N4C)[nH]c23)CC1` (relative stereo) [I-58] are 10 to 30 ×10⁻⁶ cm/s, 10 to 30 ×10⁻⁶ cm/s, 0.1 to 10, ≥ 1000 nM and 0.01 to 100 nM.
For `Cc1ccnc([C@@H]2CCC[C@H](c3nc4cccc(N5CCN(C)CC5)c4[nH]3)N2C)c1` [I-71] the same measures were 10 to 30 ×10⁻⁶ cm/s, 10 to 30 ×10⁻⁶ cm/s, 0.1 to 10, ≥ 1000 nM and 100 to 1000 nM.
On the same counts, the results for `Cc1nccnc1[C@@H]1CCC[C@H](c2nc3cccc(N4CCN(C)CC4)c3[nH]2)N1C` [I-105] are 0.1 to 10 ×10⁻⁶ cm/s, 10 to 30 ×10⁻⁶ cm/s, 0.1 to 10, ≥ 1000 nM and 100 to 1000 nM.
For `Cc1cccnc1[C@@H]1CCC[C@H](c2nc3ccccc3n2CCCN(C)C)N1` [I-155], in the data set “in vitro”, the Papp A→B at 90 min, 10 μM lay in the range of 0.1 to 10 ×10⁻⁶ cm/s; the Papp B→A at 90 min, 10 μM is > 30 ×10⁻⁶ cm/s; the efflux ratio at 90 min, 10 μM fell in the range of 0.1 to 10. Moreover, in data set [1], the IC50 is ≥ 1000 nM. Further, the IC50 in data set [2] was in the range of 0.01 to 100 nM.
For `Cc1cccnc1[C@@H]1CCC[C@H](c2nccn2C2CCNCC2)N1C` [I-179] the same measures were 0.1 to 10 ×10⁻⁶ cm/s, 10 to 30 ×10⁻⁶ cm/s, 10 to 30, 100 to 1000 nM and 0.01 to 100 nM.
On the same counts, the results for `COc1cccnc1[C@@H]1CCC[C@H](c2nc3cccc(N4CCN(C)CC4)c3[nH]2)N1C` [I-62] are 0.1 to 10 ×10⁻⁶ cm/s, 10 to 30 ×10⁻⁶ cm/s, 0.1 to 10, 0.01 to 100 nM and 0.01 to 100 nM.
For `Cc1cccnc1[C@@H]1CCC[C@H](c2nc3ccccc3n2CC2CCNCC2)N1C` [I-14, 2-((2R,6S)-1-methyl-6-(3-methylpyridin-2-yl)piperidin-2-yl)-1-(piperidin-4-ylmethyl)-1H-benzo[d]imidazole] the same measures were 0.1 to 10 ×10⁻⁶ cm/s, 10 to 30 ×10⁻⁶ cm/s, > 30, 0.01 to 100 nM and 0.01 to 100 nM.
With `CN1CCC(c2cccc3nc([C@H]4CCC[C@@H](c5ncccc5Cl)N4)[nH]c23)CC1` [I-152], in the data set “in vitro”, the Papp A→B at 90 min, 10 μM fell in the range of 0.1 to 10 ×10⁻⁶ cm/s; the Papp B→A at 90 min, 10 μM is 10 to 30 ×10⁻⁶ cm/s; the efflux ratio at 90 min, 10 μM was 0.1 to 10. For the same compound, the IC50 in data set [1] is 0.01 to 100 nM. The IC50 in data set [2] was 0.01 to 100 nM.
Regarding `Cc1cccnc1[C@@H]1CCC[C@H](c2nc3cccc(OC4CCN(C)CC4)c3[nH]2)N1C` [I-42], in the data set “in vitro”, the Papp A→B at 90 min, 10 μM lay in the range of 0.1 to 10 ×10⁻⁶ cm/s; the Papp B→A at 90 min, 10 μM was 10 to 30 ×10⁻⁶ cm/s; the efflux ratio at 90 min, 10 μM lay in the range of 0.1 to 10. Further, the IC50 in data set [1] was in the range of 0.01 to 100 nM. Besides, in data set [2], the IC50 was 0.01 to 100 nM.
`[2H]C([2H])([2H])N1[C@@H](c2nc3cccc(N4CCN(C)CC4)c3[nH]2)CCC[C@H]1c1ncccc1C` [I-112]: in the data set “in vitro”, the Papp A→B at 90 min, 10 μM lay within 10 to 30 ×10⁻⁶ cm/s and the Papp B→A at 90 min, 10 μM is 10 to 30 ×10⁻⁶ cm/s. The IC50 in data set [1] was in the range of 0.01 to 100 nM. The IC50 in data set [2] was 0.01 to 100 nM.
Turning to `Cc1cc(F)cnc1[C@@H]1CCC[C@H](c2nc3cccc(N4CCN(C)CC4)c3[nH]2)N1` [I-142], in the data set “in vitro”, the Papp A→B at 90 min, 10 μM fell in the range of 0.1 to 10 ×10⁻⁶ cm/s; the Papp B→A at 90 min, 10 μM was in the range of 10 to 30 ×10⁻⁶ cm/s; the efflux ratio at 90 min, 10 μM is 0.1 to 10. Moreover, the IC50 in data set [1] was in the range of 0.01 to 100 nM. Besides, in data set [2], the IC50 lay in the range of 0.01 to 100 nM.
Consider `Cc1cccnc1[C@@H]1CCC[C@H](c2nc3cccc(C4CCN(C)CC4)c3[nH]2)N1C` [I-34], for which, in “in vitro”, the Papp A→B at 90 min, 10 μM is 0.1 to 10 ×10⁻⁶ cm/s; the Papp B→A at 90 min, 10 μM fell in the range of 10 to 30 ×10⁻⁶ cm/s; the efflux ratio at 90 min, 10 μM lay in the range of 0.1 to 10. In data set [1], the IC50 is 0.01 to 100 nM. In data set [2], the IC50 is 0.01 to 100 nM.
`CN1CCC(n2c([C@H]3CCC[C@@H](c4ccccn4)N3)nc3ccccc32)CC1` [I-154]: in “in vitro”, the Papp A→B at 90 min, 10 μM lay within 10 to 30 ×10⁻⁶ cm/s; the Papp B→A at 90 min, 10 μM was 10 to 30 ×10⁻⁶ cm/s; the efflux ratio at 90 min, 10 μM lay within 0.1 to 10. Besides, the IC50 in data set [1] was 100 to 1000 nM. Besides, the IC50 in data set [2] was 0.01 to 100 nM.
Consider `Cc1cccnc1[C@@H]1CCC[C@H](c2nc3ccccc3n2CC2CCCN(C)C2)N1C` (stereo partly drawn) [I-13, 2-((2R,6S)-1-methyl-6-(3-methylpyridin-2-yl)piperidin-2-yl)-1-((1-methylpiperidin-3-yl)methyl)-1H-benzo[d]imidazole], for which, in “in vitro”, the Papp A→B at 90 min, 10 μM was in the range of 0.1 to 10 ×10⁻⁶ cm/s; the Papp B→A at 90 min, 10 μM lay in the range of 10 to 30 ×10⁻⁶ cm/s; the efflux ratio at 90 min, 10 μM fell in the range of 0.1 to 10. In data set [1], the IC50 was in the range of 0.01 to 100 nM. In addition, the IC50 in data set [2] lay within 0.01 to 100 nM.
As to `Cc1cccnc1[C@@H]1CCC[C@H](c2nccn2C2CCN(C)CC2)N1` [I-171], in “in vitro”, the Papp A→B at 90 min, 10 μM is 0.1 to 10 ×10⁻⁶ cm/s; the Papp B→A at 90 min, 10 μM was in the range of 10 to 30 ×10⁻⁶ cm/s; the efflux ratio at 90 min, 10 μM was 0.1 to 10. Besides, the IC50 in data set [1] was ≥ 1000 nM. The IC50 in data set [2] fell in the range of 0.01 to 100 nM.
On the same counts, the results for `Cc1cccnc1[C@@H]1CCC[C@H](c2nc3ccccc3[nH]2)N1CCCCN` [I-1, 4-((2R,6S)-2-(1H-benzo[d]imidazol-2-yl)-6-(3-methylpyridin-2-yl)piperidin-1-yl)butan-1-amine] are 0.1 to 10 ×10⁻⁶ cm/s, 0.1 to 10 ×10⁻⁶ cm/s, 10 to 30, 100 to 1000 nM and 0.01 to 100 nM.
In “in vitro”, `Cc1cccnc1[C@@H]1CCC[C@H](c2nc3cccc(N4CCN(C)CC4)c3[nH]2)N1C` (single isomer, unassigned) [I-3a] registered a Papp A→B at 90 min, 10 μM of 0.1 to 10 ×10⁻⁶ cm/s and a Papp B→A at 90 min, 10 μM of 0.1 to 10 ×10⁻⁶ cm/s. Moreover, the IC50 in data set [1] was 0.01 to 100 nM. The 50% inhibitory concentration (IC50) in data set [2] was in the range of 0.01 to 100 nM.
For the compound `CN1CCN(c2cccc3nc([C@H]4CCC[C@@H](c5nccc6occc56)N4C)[nH]c23)CC1` [I-92], in the data set “in vitro”, the Papp A→B at 90 min, 10 μM lay in the range of 10 to 30 ×10⁻⁶ cm/s; the Papp B→A at 90 min, 10 μM was 10 to 30 ×10⁻⁶ cm/s; the efflux ratio at 90 min, 10 μM was in the range of 0.1 to 10. Besides, the IC50 in data set [1] lay in the range of 100 to 1000 nM. Besides, the IC50 in data set [2] was in the range of 0.01 to 100 nM.
As to `Cc1cccnc1[C@@H]1CCC[C@H](c2nc3c(N4CCN(C)CC4)cccc3n2C)N1C` [I-36], in “in vitro”, the Papp A→B at 90 min, 10 μM was 10 to 30 ×10⁻⁶ cm/s; the basolateral-to-apical permeability (Papp B→A) at 90 min, 10 μM is 10 to 30 ×10⁻⁶ cm/s; the efflux ratio at 90 min, 10 μM was in the range of 0.1 to 10. In addition, in data set [1], the IC50 is ≥ 1000 nM. Further, in data set [2], the IC50 is ≥ 1000 nM.
As for `CCN1CCC(Cn2c([C@H]3CCC[C@@H](c4ncccc4C)N3C)nc3ccccc32)CC1` [I-22, 1-((1-ethylpiperidin-4-yl)methyl)-2-((2R,6S)-1-methyl-6-(3-methylpyridin-2-yl)piperidin-2-yl)-1H-benzo[d]imidazole], in “in vitro”, the Papp A→B at 90 min, 10 μM fell in the range of 0.1 to 10 ×10⁻⁶ cm/s; the Papp B→A at 90 min, 10 μM was 10 to 30 ×10⁻⁶ cm/s; the efflux ratio at 90 min, 10 μM is 0.1 to 10. Further, the IC50 in data set [1] fell in the range of 0.01 to 100 nM. Also, in data set [2], the IC50 is 0.01 to 100 nM.

These data come from patent publication US10988465B2, “CXCR4 inhibitors and uses thereof” (X4 Pharmaceuticals, Inc., priority 2016, dated 2021).
